Results as given in ChEMBL document CHEMBL1142713, “From 4,5,6,7-tetrahydro-5-methylimidazo[4,5,1-jk](1,4)benzodiazepin-2(1H)-one (TIBO) to etravirine (TMC125): fifteen years of research on non-nucleoside inhibitors of HIV-1 reverse transcriptase” (J Med Chem, 2005).

Experiments:
MT4 [1] = experiment: Effective concentration of the compound to inhibit HIV-1 replication in HIV-infected MT-4 cells; format: functional, cell-based; details: Homo sapiens
MT4 [2] = experiment: Effective concentration of the compound to inhibit HIV-1 mutant K103N+Y181C replication in HIV-infected MT-4 cells; format: functional, cell-based, Homo sapiens
MT4 [3] = experiment: Effective concentration of the compound to inhibit HIV-1 mutant L100I+K103N replication in HIV-infected MT-4 cells; format: functional, cell-based, Homo sapiens
MT4 [4] = experiment: Effective concentration of the compound to inhibit […] replication in HIV-infected MT-4 cells; format: functional, cell-based; details: Homo sapiens
MT4 [5] = experiment: Effective concentration of the compound to inhibit HIV-1 mutant K103N replication in HIV-infected MT-4 cells; format: functional, cell-based, Homo sapiens
MT4 [6] = experiment: Effective concentration of the compound to inhibit HIV-1 mutant L100I replication in HIV-infected MT-4 cells; format: functional, cell-based, Homo sapiens
MT4 [7] = experiment: Effective concentration of the compound to inhibit HIV-1 mutant Y181C replication in HIV-infected MT-4 cells; format: functional, cell-based, Homo sapiens
MT4 [8] = experiment: Effective concentration of the compound to inhibit HIV-1 mutant Y188L replication in HIV-infected MT-4 cells; format: functional, cell-based, Homo sapiens

Row | Structure (SMILES) | EC50 (MT4 [1]) | EC50 (MT4 [2]) | EC50 (MT4 [3]) | EC50 (MT4 [4]) | EC50 (MT4 [5]) | EC50 (MT4 [6]) | EC50 (MT4 [7]) | EC50 (MT4 [8])
1 | NC(=O)C(Nc1ccccc1Cl)c1c(Cl)cccc1Cl (stereo unspecified) | 400 nM | – | – | – | – | – | – | –
2 | N#Cc1ccc(Nc2nc(Cc3c(Cl)cccc3Cl)ns2)cc1 | > 1000 nM | – | – | – | – | – | – | –
3 | Cc1cc(C#N)cc(C)c1Nc1nc(Nc2ccc(C#N)cc2)ncc1Br | – | 32 nM | 37 nM | 0.4 nM | 0.4 nM | 7 nM | 10 nM | 3 nM
4 | N#Cc1ccc(Nc2nc(N)nc(Cc3c(Cl)cccc3Cl)n2)cc1 | – | – | – | 6 nM | 40 nM | 400 nM | 200 nM | 320 nM
5 | NC(=O)C(Nc1ccccc1[N+](=O)[O-])c1c(Cl)cccc1Cl (stereo unspecified) | 100 nM | – | – | – | – | – | – | –
6 | Cc1cc(C)c(Nc2ccnc(Nc3ccc(C#N)cc3)n2)c(C)c1 [DAPIVIRINE] | – | 44 nM | > 10000 nM | 1 nM | 4 nM | 18 nM | 8 nM | 48 nM
7 | Cc1cc(C)c(Oc2ncnc(Nc3ccc(C#N)cc3)n2)c(C)c1 | – | 130 nM | 2500 nM | 0.6 nM | 3 nM | 20 nM | 20 nM | 63 nM
8 | NC(=O)C(/N=C(\S)Nc1ccc(Cl)cc1)c1c(Cl)cccc1Cl (stereo unspecified) | 160 nM | – | – | – | – | – | – | –
9 | Cc1cc(C#N)cc(C)c1Nc1ccnc(Nc2ccc(C#N)cc2)n1 | – | 37 nM | 1100 nM | 0.4 nM | 2 nM | 34 nM | 7 nM | 8 nM
10 | Cc1cc(C)c(Oc2ccnc(Nc3ccc(C#N)cc3)n2)c(C)c1 | – | 1100 nM | 8200 nM | 3 nM | 3 nM | 22 nM | 38 nM | 55 nM
11 | CC(C)=CCN1Cc2cc(Cl)cc3[nH]c(=S)n(c23)C[C@@H]1C | 33 nM | – | – | – | – | – | – | –
12 | CC(C)=CCN1Cc2c(Cl)ccc3[nH]c(=S)n(c23)C[C@@H]1C [TIVIRAPINE] | 4.6 nM | – | – | – | – | – | – | –
13 | Cc1ccnc2c1NC(=O)c1cccnc1N2C1CC1 [NEVIRAPINE] | – | > 10000 nM | – | 32 nM | 6310 nM | 320 nM | 10000 nM | > 100000 nM
14 | Cc1cc(C)c(Nc2nc(Nc3ccc(C#N)cc3)ncc2Br)c(C)c1 | – | 280 nM | 350 nM | 6 nM | 7 nM | 11 nM | 36 nM | 27 nM
15 | NC(=O)C(NC(=O)c1ccccc1[N+](=O)[O-])c1c(Cl)cccc1Cl (stereo unspecified) | > 50000 nM | – | – | – | – | – | – | –
16 | NC(=O)C(NCc1ccccc1[N+](=O)[O-])c1c(Cl)cccc1Cl (stereo unspecified) | > 50000 nM | – | – | – | – | – | – | –

Row | Structure (SMILES) | EC50 (MT4 [1]) | EC50 (MT4 [2]) | EC50 (MT4 [3]) | EC50 (MT4 [4]) | EC50 (MT4 [5]) | EC50 (MT4 [6]) | EC50 (MT4 [7]) | EC50 (MT4 [8])
17 | Cc1cc(C#N)cc(C)c1Oc1ccnc(Nc2ccc(C#N)cc2)n1 | – | 94 nM | 800 nM | 1 nM | 3 nM | 73 nM | 37 nM | 19 nM
18 | N#Cc1ccc(Nc2cc(N)nc(Cc3c(Cl)cccc3Cl)n2)cc1 | – | – | – | 450 nM | > 10000 nM | > 10000 nM | > 10000 nM | > 10000 nM
19 | N#Cc1ccc(Nc2cc(Cc3c(Cl)cccc3Cl)nc(N)n2)cc1 | – | – | – | 10 nM | > 10000 nM | > 10000 nM | > 10000 nM | > 10000 nM
20 | CC(C)Nc1cccnc1N1CCN(C(=O)c2cc3cc(NS(C)(=O)=O)ccc3[nH]2)CC1 [DELAVIRDINE] | – | > 10000 nM | – | 63 nM | 2500 nM | 2500 nM | 2000 nM | 1300 nM
21 | C=CCN1Cc2cccc3[nH]c(=O)n(c23)CC1C (stereo unspecified) | 62000 nM | – | – | – | – | – | – | –
22 | N#Cc1ccc(Nc2nc(N)cc(Cc3c(Cl)cccc3Cl)n2)cc1 | – | – | – | 1 nM | 12 nM | 300 nM | 180 nM | 71 nM
23 | Cc1cc(C#N)cc(C)c1Oc1nc(Nc2ccc(C#N)cc2)ncc1Br | – | 25 nM | 49 nM | 1 nM | 1 nM | 7 nM | 22 nM | 6 nM
24 | NC(=O)C(/N=C(\S)Nc1ccccc1Cl)c1c(Cl)cccc1Cl (stereo unspecified) | > 50000 nM | – | – | – | – | – | – | –
25 | COc1ccccc1NC(C(N)=O)c1c(Cl)cccc1Cl (stereo unspecified) | 610 nM | – | – | – | – | – | – | –
26 | Cc1cc(C#N)cc(C)c1Oc1nc(Nc2ccc(C#N)cc2)nc(N)c1Br [ETRAVIRINE] | – | 4 nM | 19 nM | 1 nM | 1 nM | 3 nM | 7 nM | 5 nM
27 | CC(=O)c1ccc(C)cc1NC(C(N)=O)c1c(Cl)cccc1Cl (stereo unspecified) [LOVIRIDE] | – | – | – | 13 nM | 1300 nM | 50 nM | 16000 nM | 50000 nM
28 | NC(=O)C(NC(=O)Nc1ccccc1[N+](=O)[O-])c1c(Cl)cccc1Cl (stereo unspecified) | > 50000 nM | – | – | – | – | – | – | –
29 | O=C1Nc2ccc(Cl)cc2[C@@](C#CC2CC2)(C(F)(F)F)O1 [EFAVIRENZ] | – | 40 nM | > 10000 nM | 1 nM | 40 nM | 40 nM | 2 nM | 160 nM
30 | Cc1cc(C#N)cc(C)c1Nc1ncnc(Nc2ccc(C#N)cc2)n1 | – | – | > 10000 nM | 1 nM | 8 nM | 250 nM | 50 nM | 50 nM
31 | N#Cc1ccc(NC(=S)NC(=N)Cc2c(Cl)cccc2Cl)cc1 | – | – | – | 3 nM | 590 nM | 510 nM | 510 nM | 320 nM
32 | NC(=O)C(Nc1ccc(Cl)cc1)c1c(Cl)cccc1Cl (stereo unspecified) | > 50000 nM | – | – | – | – | – | – | –
